Data from US20260015332A1, “SYNTHESIS METHOD AND APPLICATION OF BENZOTHIASELENAZOLE-1-OXIDE COMPOUND AND DERIVATIVE THEREOF” (priority 2022, published 2026).

Target: M^pro protein of SARS-CoV-2 (3CLpro, P132H mutation) (Severe acute respiratory syndrome coronavirus 2, UniProt P0DTD1, P3395H)
Assay type: biochemical

`O=S1(c2ccccc2)=N[Se]c2ccccc21` (stereo not shown) [Compound 1, 1-phenylbenzo[d][1,3,2]thiaselenazole-1-ketone] was tested, and the “inhibitory activity against the M^pro protein of SARS-CoV-2 compared with ebselen (EBS) control” value was “superior to that of the ebselen (EBS) control group”.
